Key:
Thermal stability (DSC) = type: physicochemical; settings: for Onset temperature of decomposition peak (DSC) / Peak maximum temperature of decomposition peak (DSC) / Tpeak of desolvation event (first endothermic peak maximum, DSC): heating rate 20 K/min; for Onset temperature of decomposition peak (DSC) / Peak maximum temperature of decomposition peak (DSC): co-crystal: second endotherm, concomitant melting and decomposition, sodium pentahydrate: exotherm; for Tpeak of desolvation event (first endothermic peak maximum, DSC): DSC 20 to 235° C., dry nitrogen purge, event = loss of EtOH, H2O or lactic acid; for Stability against temperature stress compared to levothyroxine sodium pentahydrate (DSC conclusion): DSC analysis
Experimental: Each sample (approximately 4±0.0005 mg using a UM3 ultramicrobalance, Mettler, Greifensee, CH) was weighed into an aluminum pan (25 microlitre) and sealed with a cover, which was perforated by a needle. Dry nitrogen was used as the purge gas (purge rate: 20 mL/min). The samples were heated from 20 to 235° C. at a heating rate of 20 K/min.

Thermal stability (TGA) = type: physicochemical; settings: for Temperature range of desolvation event (TGA): TGA 20 to 235° C., 10 K/min, nitrogen purge, event = loss of EtOH, H2O or lactic acid
Experimental: Each sample (approximately 4±0.0005 mg using a UM3 ultramicrobalance, Mettler, Greifensee, CH) was weighed into an unsealed platinum sample holder (50 microlitre). The samples were heated from 20 to 235° C. at a rate of 10 K/min. Nitrogen (sample purge rate 20 mL/min and balance purge rate 40 mL/min)) was used as purge gas.

[1] = Hamad et al., Pharm Dev Technol 2015; 20(3): 314-319; cited from earlier work
[2] = Chemical stability: exposure to ambient air at 40° C. and 0% RH, followed by 1H-NMR
[3] = TGA 10 K/min, up to about 120° C.
[4] = listed as L-tartaric acid co-crystal
[5] = listed as L-tartaric acid L-lactic acid co-crystal

Row | SMILES | Onset temperature of decomposition peak (DSC) (Thermal stability (DSC)) | Peak maximum temperature of decomposition peak (DSC) (Thermal stability (DSC)) | Mass loss up to about 120° C. (TGA), in words (Thermal stability (TGA); [3]) | Temperature range of desolvation event (TGA) (Thermal stability (TGA)) | Chemical degradation on exposure to dry conditions in the presence of molecular oxygen [1] | Chemical stability under the applied stress conditions (1H-NMR) ([2]; ambient air (oxygen about 20.9 volume %), 6 weeks, spectra at start, 3 and 6 weeks) | 1H-NMR spectrum change after 3 weeks ([2]; ambient air, 3 weeks) | 1H-NMR spectrum change after 6 weeks ([2]; ambient air, 6 weeks) | Tpeak of desolvation event (first endothermic peak maximum, DSC) (Thermal stability (DSC)) | Tpeak of desolvation event (first endothermic peak maximum, DSC) (Thermal stability (DSC); [4]) [°C] | Stability against temperature stress compared to levothyroxine sodium pentahydrate (DSC conclusion) (Thermal stability (DSC)) | Temperature range of desolvation event (TGA) (Thermal stability (TGA); [4]) | Tpeak of desolvation event (first endothermic peak maximum, DSC) (Thermal stability (DSC); [5]) [°C] | Mass loss up to about 120° C. (TGA) (Thermal stability (TGA); [3]) | Temperature range of desolvation event (TGA) (Thermal stability (TGA); [5])
1 | N[C@@H](Cc1cc(I)c(Oc2cc(I)c(O)c(I)c2)c(I)c1)C(=O)[O-].[Na+] [levothyroxine sodium pentahydrate, Levothyroxine sodium pentahydrate, reference compound] | about 202 °C | about 205 °C | significant weight loss | ~30-120 °C | significant degradation | chemically unstable | additional peaks become evident | become even more intense |  |  |  |  |  |  | 
2 | N[C@@H](Cc1cc(I)c(Oc2cc(I)c(O)c(I)c2)c(I)c1)C(=O)O [levothyroxine L-tartaric acid co-crystal] | about 180 °C | about 197 °C | only a slight mass loss | 150 to 170 °C |  |  |  |  | about 165 °C | 165 | more stable against temperature stress | ~150-170 °C |  |  | 
3 | N[C@@H](Cc1cc(I)c(Oc2cc(I)c(O)c(I)c2)c(I)c1)C(=O)O [levothyroxine L-tartaric acid L-lactic acid co-crystal] |  |  |  | 150 to 170 °C |  |  |  |  | about 162 °C |  | more stabe against temperature stress |  | 162 | about 0.5 weight-% | ~150-170 °C
